Measurements reported in the NIST ThermoML archive (doi:10.1021/je3010535).
Several values for one entry are separate records, joined by “and”; a condition that tells them apart may be missing. Identical values can stand only once. ± gives the expanded uncertainty stated by the source.

Experiment: Henry's Law constant (molality scale); of the first substance listed, at infinite dilution; xn = mol fraction of the nth substance listed
Conditions: Liquid, Chromatography, x1 = 0

| SMILES | Henry's Law constant (274.15 K) [kPa·kg/mol] | Henry's Law constant (294.65 K) | Henry's Law constant (296.15 K) [kPa·kg/mol] | Henry's Law constant (313.15 K) [kPa·kg/mol] | Henry's Law constant (326.15 K) [kPa·kg/mol] | Henry's Law constant (310.15 K) [kPa·kg/mol] | Henry's Law constant (320.15 K) [kPa·kg/mol] | Henry's Law constant (331.15 K) [kPa·kg/mol] | Henry's Law constant (333.15 K) [kPa·kg/mol] |
| --- | --- | --- | --- | --- | --- | --- | --- | --- | --- |
| CC(Cl)(Cl)Cl [1,1,1-trichloroethane] + O | 484 ± 150 | 1410 kPa·kg/mol and 1210 kPa·kg/mol | 1430 ± 430 | 2680 ± 800 | 4510 ± 1400 |  |  |  |  |
| ClC(Cl)C(Cl)Cl [1,1,2,2-tetrachloroethane] + O | 3.6 ± 1.1 | 31.2 kPa·kg/mol and 17.9 kPa·kg/mol | 34.4 ± 10 |  |  | 99 ± 30 | 156 ± 47 | 262 ± 79 |  |
| ClC(Cl)=C(Cl)C(Cl)=C(Cl)Cl [1,1,2,3,4,4-hexachloro-1,3-butadiene] + O | 145 |  | 287 | 2180 | 3830 | 366 |  |  |  |
| FC(F)(Cl)C(F)(Cl)Cl [1,1,2-trichloro-1,2,2-trifluoroethane] + O | 1070 ± 320 |  |  | 16800 ± 5000 | 20100 ± 6000 |  |  |  |  |
| CC=C(Cl)Cl [1,1-dichloro-1-propene] + O | 556 ± 170 | 1480 kPa·kg/mol and 1360 kPa·kg/mol | 1460 ± 440 | 3190 ± 960 | 5570 ± 1700 |  |  |  |  |
| CC(Cl)Cl [1,1-dichloroethane] + O | 188 ± 56 |  |  | 953 ± 290 | 1560 ± 470 |  |  |  |  |
| C=C(Cl)Cl [1,1-dichloroethene] + O | 787 ± 240 |  |  | 4460 ± 1300 | 10500 ± 3200 |  |  |  |  |
| Clc1cccc(Cl)c1Cl [1,2,3-trichlorobenzene] + O | 17.8 ± 5.3 | 56.4 kPa·kg/mol and 54.8 kPa·kg/mol | 63 ± 19 |  |  | 124 ± 37 | 199 ± 60 | 324 ± 97 |  |
| ClCC(Cl)CCl [1,2,3-trichloropropane] + O | 2.98 ± 0.89 | 23 kPa·kg/mol and 13.6 kPa·kg/mol | 28.3 ± 8.5 |  |  | 78.2 ± 23 | 113 ± 34 | 208 ± 62 | 370 ± 110 |
| ClCC(Br)CBr (stereo not drawn) [1,2-dibromo-3-chloropropane] + O | 1.28 ± 0.38 | 7.76 kPa·kg/mol and 9.37 kPa·kg/mol | 11.8 ± 3.5 |  |  | 28.1 ± 8.4 | 49.7 ± 15 | 101 ± 30 | 133 ± 40 |
| Clc1ccccc1Cl [1,2-dichlorobenzene] + O | 41.1 ± 12 | 102 kPa·kg/mol and 115 kPa·kg/mol | 119 ± 36 |  |  | 208 ± 62 | 350 ± 100 | 510 ± 150 |  |
| ClCCCl [1,2-dichloroethane] + O | 42.9 ± 13 | 98.2 kPa·kg/mol and 102 kPa·kg/mol | 105 ± 32 |  |  | 211 ± 63 | 389 ± 120 | 517 ± 160 |  |
| CC(Cl)CCl (stereo not drawn) [1,2-dichloropropane] + O | 70.7 ± 21 | 217 kPa·kg/mol and 198 kPa·kg/mol | 225 ± 67 |  | 699 ± 210 | 418 ± 130 |  | 1210 ± 360 |  |
| Cc1cc(C)cc(C)c1 [1,3,5-trimethylbenzene] + O | 115 ± 46 | 304 kPa·kg/mol and 352 kPa·kg/mol | 408 ± 160 | 1330 ± 530 | 2360 ± 940 | 719 ± 290 |  | 1830 ± 730 |  |
| C1COCCO1 [1,4-dioxane] + O | 0.0629 ± 0.019 | 0.482 kPa·kg/mol and 0.35 kPa·kg/mol | 0.419 ± 0.13 |  |  | 0.84 ± 0.25 | 2 ± 0.6 | 3.92 ± 1.2 |  |
| Cc1ccc(C(C)C)cc1 [1-(1-methylethyl)-4-methylbenzene] + O | 157 ± 63 | 389 kPa·kg/mol and 469 kPa·kg/mol | 502 ± 200 | 2150 ± 860 | 3440 ± 1400 | 777 ± 310 |  | 1830 ± 730 |  |
